# Assay results published in patent US20160106711A1, “3-3-Di-Substituted-Oxindoles as Inhibitors of Translation Initiation” (President and Fellows of Harvard College, priority 2012, published 2016).
# Assays:
# KLN = test: Cell growth assay (sulforhodamine B), KLN cells; assay type: cell-based, mouse; conditions: 5 days, SRB
# Description: […] Plates were then incubated with 0.4% SRB in 1% acetic acid for 1 h, washed with 1% acetic acid to remove the unbound dye, and air-dried. The bound dye was solubilized by addition of 10 mM Tris (pH 10), and the absorbance was determined in a Titertek Multiscan plate reader at 490 nm. The data calculations were carried out as described (the values for mean±SD of data from replicate wells are calculated): data are expressed in terms of % T/C [(OD of treated cells/OD of control cells)×100], as a measure of cell viability and survival in the presence of test materials. Calculations are also made for the concentration of test agents giving a T/C value of 50%, or 50% growth inhibition (IC50). With the SRB assay, a measure is made of the cell population density at time 0 (the time at which drugs are added) from two extra reference plates of inoculated cells fixed with TCA just prior to drug addition to the test plates. Thus, we have three measurements: control optical density (C), test optical density (T), and optical density at time zero (T0). The calculation is 100×[(T−T0)/(C−T0)]. If T is less than T0, cell killing has occurred and can be calculated from 100×[(T−T0)/T0]. Thus, for each drug-cell line combination, a dose-response curve is generated and three levels of effect are calculated.
# CRL-2813 = test: Cell growth assay (sulforhodamine B), CRL-2813 cells; assay type: cell-based, human; conditions: 5 days, SRB
# Description: (§1) Adherent mouse (KLN) and human solid tumor cells (CRL-2351, and CRL-2813) were plated in 96-well plates and maintained for 5 days in the presence of 0.54 to 6 μM of individual compound, and cell proliferation was measured by the sulforhodamine B (SRB) assay as described in ref. 11: briefly, cells were fixed in 10% cold trichloroacetic acid at 4° C. for 1 h, extensively washed with double-distilled H2O and air-dried. Plates were then incubated with 0.4% SRB in 1% acetic acid for 1 h, washed with 1% acetic acid to remove the unbound dye, and air-dried. The bound dye was solubilized by addition of 10 mM Tris (pH 10), and the absorbance was determined in a Titertek Multiscan plate reader at 490 nm. The data calculations were carried out as described (the values for mean±SD of data from replicate wells are calculated): data are expressed in terms of % T/C [(OD of treated cells/OD of control cells)×100], as a measure of cell viability and survival in the presence of test materials. Calculations are also made for the concentration of test agents giving a T/C value of 50%, or 50% growth inhibition (IC50). With the SRB assay, a measure is made of the cell population density at time 0 (the time at which drugs are added) from two extra reference plates of inoculated cells fixed with TCA just prior to drug addition to the test plates. Thus, we have three measurements: control optical density (C), test optical density (T), and optical density at time zero (T0). The calculation is 100×[(T−T0)/(C−T0)]. If T is less than T0, cell killing has occurred and can be calculated from 100×[(T−T0)/T0]. Thus, for each drug-cell line combination, a dose-response curve is generated and three levels of effect are calculated.
# CRL-2351 = test: Cell growth assay (sulforhodamine B), CRL-2351 cells; assay type: cell-based, human; conditions: 5 days, SRB
# Description: as §1
# [1] = system: eIF2•GTP•Met-tRNAi ternary complex; test: Ternary complex assay (ATF-4 assay), dual luciferase firefly/renilla ratio; assay type: cell-based, mouse; conditions: for maximal fold induction at 40 µM: read-out: ATF-4 Xmax @ 40 μM
# Source text: For assay development, a bi-directional plasmid was designed in which a common promoter/enhancer complex drives the transcription of firefly luciferase (F-luc) ORF fused to the 5′ untranslated region (UTR) of ATF-4, and of the renilla luciferase (R-luc) ORF fused to a 90-nucleotide 5′ UTR derived from the plasmid (FIG. 6A). Because the tetracycline-regulated transactivator ((tTA), required for driving transcription from this vector) is not normally expressed in the mammalian cells, stable KLN cancer cells were constructed that expressed tTA (KLN-tTA).
# The KLN-tTA colonies that drove expression of reporter genes from pBISA-DL plasmid were selected by transient transfection and dual luciferase assay. One of these KLN-tTA cell lines was transfected with the pBISA-DL^(ATF-4) expression vector, stable colonies were selected by dual luciferase assay and expanded.
# Plasmids and Ternary Complex Assay
# (ATF-4 Assay). Briefly, bi-directional mammalian expression vector pBI (Clontech, CA) was modified to expand the multiple cloning sites (MCSs) and designated thereafter as pBISA. This vector contains seven copies of the tetracycline-regulated transactivator response element (TRE), which together act as core promoter/enhancer. The TRE is flanked on both sides by minimal human cytomegalovirus (CMV) minimal promoters allowing bi-directional transcription and two MCSs. Firefly and renilla luciferases were subcloned into MCS-I and MCS-II, respectively. This plasmid, designated pBISA-DL, transcribes two mRNAs that contain the 90 nucleotide plasmid derived 5′UTR (same sequence in both mRNAs), and the ORF encoding either firefly or renilla luciferase followed by a polyadenylation sequence as described in Ziegeler, G.; Ming, J.; Koseki, J. C.; Sevinc, S.; Chen, T.; Ergun, S.; Qin, X.; Aktas, B. H. J. Biol. Chem. 2010, 285, 15408 hereby incorporated by reference. This plasmid was further modified by inserting the 5′UTR of ATF-4 into MCS-I in front of the firefly luciferase mRNA. Transcription from this direction generates an mRNA that contains the firefly luciferase ORF preceded by a 5′UTR composed of 90 nucleotides derived from the plasmid and 267 nucleotides derived from the 5′UTR of ATF-4 mRNA. Transcription from the other direction generates an mRNA that contains the renilla luciferase ORF proceeded only by the 90-nucleotide plasmid-derived sequence in the 5′UTR. This expression plasmid is called pBISA-DL(ATF-4). In the dual luciferase assay, cells expressing firefly and renilla luciferases were lysed and the extracts assayed with a Dual-Glo Luciferase assay kit, per manufacturer's instruction (Promega Inc., Madison, Wis.). The data calculations were carried out as the ratio of firefly to renilla luciferase signal as described in Chen, T.; Ozel, D.; Qiao, Y.; Harbinski, F.; Chen, L.; Denoyelle, S.; He, X.; Zvereva, N.; Supko, J. G.; Chorev, M.; Halperin, J. A.; Aktas, B. H. Nat. Chem. Biol. 2011, 7, 610 hereby incorporated by reference.
# [2] = Mus musculus, 80 uM, read-out: ATF-4 Xmax
# [3] = Mus musculus, read-out: ATF-4 Xmax
SMILES,"IC50 (KLN; Mus musculus, 120 h)","IC50 (CRL-2813; Homo sapiens, CRL2813, 120 h)","IC50 (CRL-2351; Homo sapiens, 120 h)",maximal fold induction at 40 µM ([1]; Mus musculus),"maximal fold induction at 80 µM [1, 2]","maximal fold induction at 10 µM ([1]; Mus musculus, 10 uM, read-out: ATF-4 Xmax)","maximal fold induction at 20 µM [1, 3]",IC50 (KLN),IC50 (CRL-2813),IC50 (CRL-2351),ATF-4 Xmax ([1]; 80 uM)
"CCCCc1ccc(O)c(C2(c3ccccc3)C(=O)Nc3ccccc32)c1 (stereo not drawn) [Compound 1287, reference compound]",> 20 µM,2.8 ± 0.3 µM,3.5 ± 0.1 µM,,,,,,,,
"O=C1Nc2ccccc2C1(c1ccccc1)c1cc(C2CCCC2)ccc1O (stereo not drawn) [Compound 1289, reference compound]",16 ± 2.2 µM,2.5 ± 0.3 µM,3.2 ± 1 µM,2.87 ± 2.19,,,,,,,
"CC(C)(C)c1ccc(O)c(C2(c3cccnc3)C(=O)Nc3ccccc32)c1 (stereo not drawn) [HY003, 3-(5-tert-Butyl-2-Hydroxyphenyl)-3-(Pyridin-3-yl)Indolin-2-One]",> 20 µM,11.5 ± 1.8 µM,6.4 ± 3 µM,,1.67,,,,,,
"CC(C)(C)c1ccc(O)c(C2(c3ccc(CN4CCOCC4)cc3)C(=O)Nc3ccccc32)c1 (stereo not drawn) [HY016, 3-(5-tert-butyl-2-hydroxyphenyl)-3-(4-(Morpholinomethyl)phenyl)Indolin-2-One]",17.3 ± 2.4 µM,7.8 ± 0.66 µM,7.3 ± 3.6 µM,,8.5 ± 5.3,,,,,,
"Cc1cc(C2(c3cc(C(C)(C)C)ccc3O)C(=O)Nc3ccccc32)ccc1Cl (stereo not drawn) [HY017, 3-(5-tert-Butyl-2-Hydroxyphenyl)-3-(4-Chloro-3-Methylphenyl)Indolin-2-One]",4.3 ± 1 µM,2.9 ± 0.1 µM,2.9 ± 0.1 µM,0.65 ± 0.7,,,,,,,
"CC(C)(C)c1ccc(O)c(C2(c3cc(C(C)(C)C)ccc3O)C(=O)Nc3ccccc32)c1 [HY021, 3,3-Bis(5-tert-Butyl-2-Hydroxyphenyl)Indolin-2-One]",12 ± 0.7 µM,10.2 ± 1.2 µM,2.8 ± 0.4 µM,4.4,,5.2 ± 2.2,10.6,,,,
"CC(C)Oc1ccc(O)c(C2(c3ccccc3)C(=O)Nc3ccccc32)c1 (stereo not drawn) [HY032, 3-(2-Hydroxy-5-Isopropoxyphenyl)-3-Phenylindolin-2-One]",16.1 ± 2.2 µM,10.5 ± 1.9 µM,4.8 ± 1.6 µM,4.65 ± 0.58,,,,,,,
"CC(C)(C)c1ccc(O)c(C2(c3cc(C(C)(C)C)ccc3O)C(=O)Nc3c2ccc(F)c3F)c1 [HY036, 3,3-Bis(5-tert-Butyl-2-Hydroxyphenyl)-6,7-Difluoroindolin-2-One]",11.2 ± 3.2 µM,2.7 ± 0.1 µM,2.4 ± 0.6 µM,4.45 ± 1.07,,,,,,,
"CC(C)Oc1ccc(O)c(C2(c3cc(OC(C)C)ccc3O)C(=O)Nc3ccccc32)c1 [HY037, 3,3-Bis(2-Hydroxy-5-Isopropoxyphenyl)Indolin-2-One]",> 20 µM,5.6 ± 0.8 µM,3.6 ± 0.6 µM,,2.79 ± 0.9,,,,,,
"CCCCc1ccc(O)c(C2(c3cc(CCCC)ccc3O)C(=O)Nc3ccccc32)c1 [HY048, 3,3-Bis(5-Butyl-2-Hydroxyphenyl)Indolin-2-One]",14.3 ± 1.6 µM,3 µM,1.9 ± 0.5 µM,,,,5 ± 1.5,,,,
"CC(C)c1ccc(O)c(C2(c3cc(C(C)C)ccc3O)C(=O)Nc3ccccc32)c1 [HY050, 3,3-Bis(2-Hydroxy-5-Isopropylphenyl)Indolin-2-One]",15.2 ± 2 µM,2.9 ± 0.3 µM,2.6 ± 0.5 µM,,,,3.34 ± 0.07,,,,
COc1ccc(OC)c(C2(c3cc(O)ccc3OC)C(=O)Nc3ccccc32)c1 (stereo not drawn) [HY055],15.6 ± 0.4 µM,9.7 ± 2 µM,9 µM,,1.2 ± 0.6,,,,,,
O=C1Nc2ccccc2C1(c1cc(C2CCCC2)ccc1OCCO)c1cc(C2CCCC2)ccc1OCCO [HY058],15.2 ± 1.1 µM,1.3 ± 0.4 µM,2.4 ± 0.1 µM,,,,3.35 ± 0.74,,,,
CC(C)(C)c1ccc(O)c(C2(c3cc(C(C)(C)C)ccc3OCCN3CCOCC3)C(=O)Nc3ccccc32)c1 (stereo not drawn) [HY063],7.4 ± 2.5 µM,3.2 ± 0.2 µM,1.6 ± 0.2 µM,4.4 ± 1.5,,,,,,,
CCOC(=O)COc1ccccc1C1(c2cc(C(C)(C)C)ccc2OCC(=O)OCC)C(=O)Nc2ccccc21 (stereo not drawn) [HY067],,,,,,,,19.8 ± 1.3 µM,0.24 µM,2.1 ± 1.1 µM,1.19 ± 0.19/80 uM
CC(C)(C)c1ccc(C2(c3cc(C(C)(C)C)ccc3O)C(=O)Nc3ccccc32)c(OCCO)c1 (stereo not drawn) [HY069],> 20 µM,2.9 ± 0.3 µM,8.8 ± 0.9 µM,10.7 ± 1,,,,,,,
CC(C)(C)c1ccc(O)c(C2(c3cc(C(C)(C)C)ccc3OCCN3CCCCC3)C(=O)Nc3ccccc32)c1 (stereo not drawn) [HY072],2.9 ± 0.4 µM,3.35 ± 0.5 µM,0.7 ± 0.1 µM,,,,4.15 ± 0.5,,,,
CC(C)(C)c1ccc(OCCOC2OC(CO)C(O)C(O)C2O)c(C2(c3cc(C(C)(C)C)ccc3OCCOC3OC(CO)C(O)C(O)C3O)C(=O)Nc3ccccc32)c1 (stereo not drawn) [HY190],> 20 µM,> 20 µM,> 20 µM,,,,,,,,
CC(C)(C)c1ccc(OCCN2CCOCC2)c(C2(c3cc(C(C)(C)C)ccc3OCCN3CCOCC3)C(=O)Nc3ccccc32)c1 [SD167],> 20 µM,2.4 ± 0.1 µM,1.68 ± 1.26 µM,,,,,,,,
